Read-outs that look alike come from different tables or passages of the source. Where no end group is shown, it is not given here.
What was measured:
HLA-A2402 = HLA-A2402 (Homo sapiens, UniProt P04439, D101N/D140Y/D185E/E176V/E190D/F33S/G103R/G107R/I119L/I121M/I306V/K335N/L105A/L180Q/L300P/N151K/N90K/Q86E/Q94H/R106L/R138H/R89G/T104I/T345S/V100E/W191G/Y123F); test: cell-based; assay type: binding; settings: for inhibition at 5 µM / inhibition at 15 µM / 5-μM inhibition (%) / 15-μM inhibition (%): A2402, 24 h, 4°C, flow cytometry; for inhibition at 5 µM / 5-μM inhibition (%): peptide 5 μM vs FITC-labeled reference peptide 300 nM; for inhibition at 15 µM / 15-μM inhibition (%): peptide 15 μM vs FITC-labeled reference peptide 300 nM
HLA-A3303 = HLA-A3303 (Homo sapiens, UniProt P04439, A270S/D185E/E176V/E277Q/E87N/F33T/G231S/H175R/I121M/I218V/I322F/K168Q/L300P/L318F/M331R/P217A/Q86R/Q94H/R138Q/T323A/T345S/T97I/V358M); test: Peptide competitive binding assay, HMy2.CIR cells expressing A3303
HLA-A0201 = molecular target: T1, HLA-A0201 (Homo sapiens, UniProt P04439, D140Y/D185E/D98H/E176V/E277Q/G131W/G231S/I119V/I121R/I166T/I218V/L300P/L318F/N151K/N90K/P208A/P217A/Q86G/Q94H/R138H/R169H/T345S); test: cell-based; assay type: binding; settings: A0201; for 5-μM inhibition (%) / inhibition at 5 µM: peptide 5 μM vs FITC-labeled reference peptide 300 nM; for 5-μM inhibition (%) / 15-μM inhibition (%) / inhibition at 5 µM / inhibition at 15 µM: 24 h, 4°C, flow cytometry; for 15-μM inhibition (%) / inhibition at 15 µM: peptide 15 μM vs FITC-labeled reference peptide 300 nM; for IC50: class from inhibition at 5 and 15 μM of FITC-labeled reference peptide binding, read-out: Affinity; for inhibition at 5 µM: read-out: 5-μM inhibition (%); for inhibition at 15 µM: read-out: 15-μM inhibition (%)
T1 construct: expressed in transfected cells; host or cells: HMy2.CIR

HLA-A0203 = molecular target: T2, HLA-A0203 (Homo sapiens, UniProt P04439, A173T/D140Y/D185E/D98H/E277Q/G131W/G231S/I119V/I121R/I166T/I218V/L180W/L300P/L318F/N151K/N90K/P208A/P217A/Q86G/Q94H/R138H/R169H/T345S); test: cell-based; assay type: binding; settings: A0203; for 5-μM inhibition (%) / inhibition at 5 µM: peptide 5 μM vs FITC-labeled reference peptide 300 nM; for 5-μM inhibition (%) / 15-μM inhibition (%) / inhibition at 5 µM / inhibition at 15 µM: 24 h, 4°C, flow cytometry; for 15-μM inhibition (%) / inhibition at 15 µM: peptide 15 μM vs FITC-labeled reference peptide 300 nM; for inhibition at 5 µM: read-out: 5-μM inhibition (%); for inhibition at 15 µM: read-out: 15-μM inhibition (%)
T2 construct: expressed in transfected cells; host or cells: HMy2.CIR

HLA-A1101 = molecular target: T3, HLA-A1101 (Homo sapiens, UniProt P04439, A114D/D185E/E176A/F33Y/L180Q/S129P/T187R); test: cell-based; assay type: binding; settings: for inhibition at 5 µM / 5-μM inhibition (%): peptide 5 μM vs FITC-labeled reference peptide 300 nM; for inhibition at 5 µM / inhibition at 15 µM / 5-μM inhibition (%) / 15-μM inhibition (%): 24 h, 4°C, flow cytometry; for inhibition at 5 µM: read-out: 5-μM inhibition (%); for inhibition at 15 µM / 15-μM inhibition (%): peptide 15 μM vs FITC-labeled reference peptide 300 nM; for inhibition at 15 µM: read-out: 15-μM inhibition (%)
T3 construct: expressed in transfected cells; host or cells: HMy2.CIR

[1] = A3303, peptide 5 μM vs FITC-labeled reference peptide 300 nM, 24 h, 4°C, flow cytometry
[2] = A3303, peptide 15 μM vs FITC-labeled reference peptide 300 nM, 24 h, 4°C, flow cytometry
[3] = A1101, class from inhibition at 5 and 15 μM of FITC-labeled reference peptide binding, read-out: Affinity

For MYSPVSILDI [Peptide P53], the IC50 (HLA-A2402) was < 5 µM, the inhibition at 5 µM (HLA-A2402) was 75.5% and the inhibition at 15 µM (HLA-A2402) was 98.1%.

In the case of NITGILLTR [Peptide P107], the “5-μM inhibition (%)” value (HLA-A3303; [1]) is reported as 34.61% and the “15-μM inhibition (%)” value (HLA-A3303; [2]) is reported as 49.22%.

In the case of NYTNQIYEI [Peptide P47], the IC50 (HLA-A2402) is reported as < 5 µM, the inhibition at 5 µM (HLA-A2402) is reported as 87.5% and the inhibition at 15 µM (HLA-A2402) is reported as 94.5%.

Work on PYNTPVFAI [Peptide P63] yielded an IC50 (HLA-A2402) of 5 to 15 µM, an inhibition at 5 µM (HLA-A2402) of 25.7% and an inhibition at 15 µM (HLA-A2402) of 55.6%.

For QMQEDVISL [Peptide P4], the “5-μM inhibition (%)” value (HLA-A0201) was 10.81%, the “15-μM inhibition (%)” value (HLA-A0201) was 44.70% and the “5-μM inhibition (%)” value (HLA-A0203) was 0.00%. The “15-μM inhibition (%)” value (HLA-A0203) was 0.00%.

In the case of QTNSAILMQR [Peptide P105], the “5-μM inhibition (%)” value (HLA-A3303; [1]) is reported as 29.22% and the “15-μM inhibition (%)” value (HLA-A3303; [2]) is reported as 45.63%.

In the case of QTVYALFYR [Peptide P108], the “5-μM inhibition (%)” value (HLA-A3303; [1]) is reported as 35.63% and the “15-μM inhibition (%)” value (HLA-A3303; [2]) is reported as 40.50%.

RQGTISFNF [Peptide P61] was tested, and the “5-μM inhibition (%)” value (HLA-A2402) was 12.82% and the “15-μM inhibition (%)” value (HLA-A2402) was 41.47%.

RTAHTNDVK [Peptide P39] was tested, and the IC50 (HLA-A1101; [3]) was < 5 µM, the inhibition at 5 µM (HLA-A1101; A1101) was 60.4% and the inhibition at 15 µM (HLA-A1101; A1101) was 86.2%.

With SILRGGKLDK [Peptide P30] the “5-μM inhibition (%)” value (HLA-A1101; A1101) was 19.77% and the “15-μM inhibition (%)” value (HLA-A1101; A1101) was 47.09%.

SLAEGEIII [Peptide P3] gave an IC50 (HLA-A0201) of 5 to 15 µM, an inhibition at 5 µM (HLA-A0201) of 26.1% and an inhibition at 15 µM (HLA-A0201) of 66.2%. For the same sequence, the IC50 (HLA-A0203; class from inhibition at 5 and 15 μM of FITC-labeled reference peptide binding, read-out: Affinity) was 5 to 15 µM, the inhibition at 5 µM (HLA-A0203) was 0.12% and the inhibition at 15 µM (HLA-A0203) was 51.1%.

SLVDTIAIAV [Peptide P1] gave an IC50 (HLA-A0201) of 5 to 15 µM, an inhibition at 5 µM (HLA-A0201) of 38% and an inhibition at 15 µM (HLA-A0201) of 78.5%. The inhibition at 5 µM (HLA-A0203) was 28.2% and the inhibition at 15 µM (HLA-A0203) was 31.9%.

With SSWSNKSQK [Peptide P24] the “5-μM inhibition (%)” value (HLA-A1101; A1101) was 20.55% and the “15-μM inhibition (%)” value (HLA-A1101; A1101) was 36.55%.

SVIKQACPK [Peptide P21] gave an IC50 (HLA-A1101) of 5 to 15 µM, an inhibition at 5 µM (HLA-A1101; A1101) of 29.7% and an inhibition at 15 µM (HLA-A1101; A1101) of 68.9%.

With SVPLDESFRK [Peptide P42] the IC50 (HLA-A1101) was < 5 µM, the inhibition at 5 µM (HLA-A1101; A1101) was 89.9% and the inhibition at 15 µM (HLA-A1101; A1101) was 93.8%.

With SVQCTHGIK [Peptide P25] the IC50 (HLA-A1101; [3]) was < 5 µM, the inhibition at 5 µM (HLA-A1101; A1101) was 61.4% and the inhibition at 15 µM (HLA-A1101; A1101) was 85.6%.

For TFYVDGAASR [Peptide P110], the inhibition at 5 µM (HLA-A3303; [1]) was 78.2%, the inhibition at 15 µM (HLA-A3303; [2]) was 90.1% and the IC50 (HLA-A3303; read-out: Affinity) was < 5 µM.

In the case of TTLFCASDAK [Peptide P28], the IC50 (HLA-A1101) is reported as < 5 µM, the inhibition at 5 µM (HLA-A1101; A1101) is reported as 78.4% and the inhibition at 15 µM (HLA-A1101; A1101) is reported as 92.2%.

With TVQPIQLPEK [Peptide P35] the IC50 (HLA-A1101) was < 5 µM, the inhibition at 5 µM (HLA-A1101; A1101) was 88.7% and the inhibition at 15 µM (HLA-A1101; A1101) was 93.9%.

With TYQIYQEPF [Peptide P58] the IC50 (HLA-A2402) was < 5 µM, the inhibition at 5 µM (HLA-A2402) was 54.1% and the inhibition at 15 µM (HLA-A2402) was 95.3%.

Work on VQMAVFIHNF [Peptide P64] yielded an IC50 (HLA-A2402) of 5 to 15 µM, an inhibition at 5 µM (HLA-A2402) of 31.2% and an inhibition at 15 µM (HLA-A2402) of 50.2%.

For VTENFNMWK [Peptide P26], the IC50 (HLA-A1101) was < 5 µM, the inhibition at 5 µM (HLA-A1101; A1101) was 86.6% and the inhibition at 15 µM (HLA-A1101; A1101) was 92.9%.

With WWMEYWQATW [Peptide P57] the IC50 (HLA-A2402) was 5 to 15 µM, the inhibition at 5 µM (HLA-A2402) was 29.2% and the inhibition at 15 µM (HLA-A2402) was 70.7%.

In the case of WYIKIFIII [Peptide P48], the “5-μM inhibition (%)” value (HLA-A2402) is reported as 1.56% and the “15-μM inhibition (%)” value (HLA-A2402) is reported as 6.91%.

In the case of WYIKIFIMI [Peptide P51], the “5-μM inhibition (%)” value (HLA-A2402) is reported as 3.34% and the “15-μM inhibition (%)” value (HLA-A2402) is reported as 29.97%.

For YMLKHLVWA [Peptide P7], the “5-μM inhibition (%)” value (HLA-A0201) was 8.94%, the “15-μM inhibition (%)” value (HLA-A0201) was 16.50% and the “5-μM inhibition (%)” value (HLA-A0203) was 3.83%. For the same sequence, the “15-μM inhibition (%)” value (HLA-A0203) was 19.15%.

YWQATWIPEW [Peptide P60] was tested, and the IC50 (HLA-A2402) was < 5 µM, the inhibition at 5 µM (HLA-A2402) was 97.5% and the inhibition at 15 µM (HLA-A2402) was 97.8%.
